Data: ChEMBL document CHEMBL6127088, “Novel 2-aminothiazole analogues both as polymyxin E synergist and antimicrobial agent against multidrug-resistant Gram-positive bacteria” (2024)
In brackets after ≈: the same amount, converted by molar mass. Activity calls are given as the source filed them. No cut-off for these calls is given here.

Assays:
[1] = system: Klebsiella pneumoniae; assay: Synergistic antibacterial activity against Klebsiella pneumoniae KPN 943 assessed as fractional inhibitory concentration index at 4 microg/ml incubated for 18 to 20 hrs by chequerboard assay; format: functional; conditions: dose 4 µg/ml; time 18-20 hrs
[2] = system: Acinetobacter baumannii; assay: Antibacterial activity against Acinetobacter baumannii ATCC 19606 assessed as inhibition of bacterial growth at 4 microg/ml incubated for overnight in presence of 0.25 microg/ml polymyxin-E and measured with in 8 hrs by time-kill assay; format: functional, organism-based; conditions: dose 4.0 µg/ml
[3] = system: Acinetobacter baumannii; assay: Synergistic antibacterial activity against Acinetobacter baumannii Ab 1611 assessed as polymyxin-E MIC at 4 microg/ml incubated for 18 hrs by broth microdilution method; format: functional; conditions: dose 4 µg/ml
[4] = system: Pseudomonas aeruginosa; assay: Antibacterial activity against Pseudomonas aeruginosa PAE 3887 incubated for 18 hrs by broth microdilution method; format: functional
[5] = system: Acinetobacter baumannii; assay: Synergistic antibacterial activity against Acinetobacter baumannii Ab 1613 assessed as polymyxin-E MIC at 4 microg/ml incubated for 18 hrs by broth microdilution method; format: functional; conditions: dose 4 µg/ml
[6] = system: Enterococcus faecalis; assay: Antibacterial activity against Enterococcus faecalis ATCC 29212 assessed as inhibition of bacterial growth incubated for 18 hrs by broth microdilution method; format: functional
[7] = system: Acinetobacter baumannii; assay: Antimicrobial activity against Acinetobacter baumannii ATCC 19606 incubated for 18 hrs by broth microdilution method; format: functional
[8] = system: Klebsiella pneumoniae; assay: Synergistic antibacterial activity against Klebsiella pneumoniae KPN 1617 assessed as polymyxin-E MIC at 4 microg/ml incubated for 18 hrs by broth microdilution method; format: functional; conditions: dose 4 µg/ml
[9] = system: Acinetobacter baumannii; assay: Synergistic antibacterial activity against Acinetobacter baumannii Ab 1611 assessed as fractional inhibitory concentration index at 4 microg/ml incubated for 18 to 20 hrs by chequerboard assay; format: functional; conditions: dose 4 µg/ml; time 18-20 hrs
[10] = system: Cell membrane; assay: Disruption of cell membrane integrity in Acinetobacter baumannii ATCC 19606 assessed as reduction in nucleoid boundaries at 4 microg/ml incubated for 1 hrs in presence of polymyxin-E by TEM analysis; format: subcellular; design: scale not given: the % may be the effect or the level left; conditions: dose 4.0 µg/ml
[11] = system: Acinetobacter baumannii; assay: Antibacterial activity against Acinetobacter baumannii Ab 1613 incubated for 18 hrs by broth microdilution method; format: functional
[12] = system: Klebsiella pneumoniae; assay: Synergistic antibacterial activity against Klebsiella pneumoniae KPN 943 assessed as fold change in polymyxin-E MIC incubated for 18 hrs by broth microdilution method relative to polymyxin-E alone; format: functional
[13] = system: Bacillus subtilis; assay: Antimicrobial activity against Bacillus subtilis ATCC 20678 incubated for 18 hrs by broth microdilution method; format: functional
[14] = system: Cell membrane; assay: Disruption of cell membrane integrity in Acinetobacter baumannii ATCC 19606 assessed as outer membrane expansion at 4 microg/ml incubated for 1 hrs by TEM analysis; format: subcellular; conditions: dose 4.0 µg/ml
[15] = system: Klebsiella pneumoniae; assay: Synergistic antibacterial activity against Klebsiella pneumoniae SIPI-KPN-1712 assessed as fold change in polymyxin-E MIC incubated for 18 hrs by broth microdilution method relative to polymyxin-E alone; format: functional
[16] = system: Pseudomonas aeruginosa; assay: Synergistic antibacterial activity against Pseudomonas aeruginosa PAE 3887 assessed as polymyxin-E MIC at 4 microg/ml incubated for 18 hrs by broth microdilution method; format: functional; conditions: dose 4 µg/ml
[17] = system: Staphylococcus aureus; assay: Antibacterial activity against methicillin-resistant Staphylococcus aureus ATCC 43300 assessed as inhibition of bacterial growth at 2 microg/ml measured after 24 hrs by time-kill assay; format: functional; design: scale not given: the % may be the effect or the level left; conditions: dose 2 µg/ml
[18] = system: Pseudomonas aeruginosa; assay: Synergistic antibacterial activity against Pseudomonas aeruginosa […] assessed as fold change in polymyxin-E MIC incubated for 18 hrs by broth microdilution method relative to polymyxin-E alone; format: functional
[19] = system: Acinetobacter baumannii; assay: Synergistic antibacterial activity against Acinetobacter baumannii ATCC 19606 assessed as polymyxin-E MIC at 4 microg/ml incubated for 18 hrs by broth microdilution method; format: functional; conditions: dose 4 µg/ml
[20] = system: Pseudomonas aeruginosa; assay: Synergistic antibacterial activity against Pseudomonas aeruginosa PAE 1051 assessed as fractional inhibitory concentration index at 4 microg/ml incubated for 18 to 20 hrs by chequerboard assay; format: functional; conditions: dose 4 µg/ml; time 18-20 hrs
[21] = system: Cell membrane; assay: Induction of outer membrane disruption in Acinetobacter baumannii ATCC 19606 assessed as decrease in fluorescence intensity by NPN dye based fluorescence analysis; format: subcellular
[22] = system: Acinetobacter baumannii; assay: Antibacterial activity against Acinetobacter baumannii ATCC 19606 infected in female Balb/c mouse model assessed as increase in animal survival at 64 mg/kg, iv administered every 12 hrs and measured for 7 days; format: functional, organism-based
[23] = system: Enterococcus faecalis; assay: Antimicrobial activity against vancomycin-resistant Enterococcus faecalis ATCC 51299 assessed as minimum inhibitory concentration incubated for 18 hrs by broth microdilution method; format: functional
[24] = system: Pseudomonas aeruginosa; assay: Synergistic antibacterial activity against Pseudomonas aeruginosa PAE 3887 assessed as fractional inhibitory concentration index at 4 microg/ml incubated for 18 to 20 hrs by chequerboard assay; format: functional; conditions: dose 4 µg/ml; time 18-20 hrs
[25] = system: Pseudomonas aeruginosa; assay: Synergistic antibacterial activity against Pseudomonas aeruginosa […] assessed as fractional inhibitory concentration index at 4 microg/ml incubated for 18 to 20 hrs by chequerboard assay; format: functional; conditions: dose 4 µg/ml; time 18-20 hrs
[26] = system: Mycolicibacterium smegmatis; assay: Antibacterial activity against Mycobacterium smegmatis MC 2155 assessed as inhibition of bacterial growth incubated for 18 hrs by broth microdilution method; format: functional
[27] = system: Cell membrane; assay: Disruption of cell membrane integrity in Acinetobacter baumannii ATCC 19606 assessed as cellular damage at 4 microg/ml incubated for 1 hrs by TEM analysis; conditions: dose 4.0 µg/ml
[28] = system: Cell membrane; assay: Disruption of cell membrane integrity in Acinetobacter baumannii ATCC 19606 assessed as cellular vacuolization at 4 microg/ml incubated for 1 hrs in presence of polymyxin-E by TEM analysis; format: subcellular; conditions: dose 4.0 µg/ml
[29] = system: Acinetobacter baumannii; assay: Antibacterial activity against Acinetobacter baumannii ATCC 19606 assessed as inhibition of bacterial growth at 4 microg/ml incubated for overnight in presence of 0.25 microg/ml polymyxin-E and measured at 24 hrs by time-kill assay; format: functional, organism-based; conditions: dose 4.0 µg/ml
[30] = system: Staphylococcus aureus; assay: Antibacterial activity against Staphylococcus aureus LAC assessed as inhibition of bacterial growth incubated for 18 hrs by broth microdilution method; format: functional
[31] = system: Pseudomonas aeruginosa; assay: Synergistic antibacterial activity against Pseudomonas aeruginosa […] assessed as polymyxin-E MIC at 4 microg/ml incubated for 18 hrs by broth microdilution method; format: functional; conditions: dose 4 µg/ml
[32] = system: Acinetobacter baumannii; assay: Antibacterial activity against Acinetobacter baumannii ATCC 19606 assessed as inhibition of bacterial growth at 16 microg/ml incubated for overnight by time-kill assay; format: functional, organism-based; conditions: dose 16.0 µg/ml
[33] = system: Cell membrane; assay: Induction of outer membrane disruption in Acinetobacter baumannii ATCC 19606 assessed as decrease in fluorescence intensity in presence of polymyxin-E by NPN dye based fluorescence analysis; format: subcellular
[34] = system: Staphylococcus aureus; assay: Antibacterial activity against Staphylococcus aureus SF 8300 assessed as inhibition of bacterial growth incubated for 18 hrs by broth microdilution method; format: functional
[35] = system: Staphylococcus aureus; assay: Antibacterial activity against Staphylococcus aureus S1-1-65 assessed as inhibition of bacterial growth incubated for 18 hrs by broth microdilution method; format: functional
[36] = system: Acinetobacter baumannii; assay: Antibacterial activity against Acinetobacter baumannii Ab 1611 incubated for 18 hrs by broth microdilution method; format: functional
[37] = system: Klebsiella pneumoniae; assay: Synergistic antibacterial activity against Klebsiella pneumoniae KPN 1617 assessed as fold change in polymyxin-E MIC incubated for 18 hrs by broth microdilution method relative to polymyxin-E alone; format: functional

Question: Which “fractional inhibitory concentration index (FICI)” value [1] does the source give for `C/C(=N\Nc1ccccn1)c1csc(Nc2cc(F)cc(C(F)(F)F)c2)n1` here?
Answer: 0.062

Question: What about the Activity [2] of the same compound?
Answer: Active

Question: What about the MIC [3] of the same compound?
Answer: 0.063 µg/mL

Question: What about the MIC [4] of the same compound?
Answer: > 128 µg/mL

Question: And the MIC [5]?
Answer: 0.125 µg/mL

Question: What about the MIC [6] of the same compound?
Answer: 2 µg/mL (≈ 5.06 µM)

Question: And the MIC [7]?
Answer: 128 µg/mL (≈ 324 µM)

Question: And the MIC [8]?
Answer: 0.5 µg/mL

Question: And the “fractional inhibitory concentration index (FICI)” value [9]?
Answer: 0.094

Question: And the Activity [10]?
Answer: 100%

Question: And the MIC [11]?
Answer: > 128 µg/mL

Question: What about the “fold change (FC)” value [12] of the same compound?
Answer: 32

Question: And the MIC [13]?
Answer: 1 µg/mL (≈ 2.53 µM)

Question: What about the Activity [14] of the same compound?
Answer: Active

Question: And the “fold change (FC)” value [15]?
Answer: 16

Question: And the MIC [16]?
Answer: 0.125 µg/mL

Question: What about the Activity [17] of the same compound?
Answer: 100%

Question: What about the “fold change (FC)” value [18] of the same compound?
Answer: 2

Question: And the MIC [19]?
Answer: 0.031 µg/mL

Question: What about the “fractional inhibitory concentration index (FICI)” value [20] of the same compound?
Answer: 0.281

Question: And the Activity [21]?
Answer: Active

Question: What about the Activity [22] of the same compound?
Answer: inactive

Question: What about the MIC [23] of the same compound?
Answer: 1 µg/mL (≈ 2.53 µM)

Question: And the “fractional inhibitory concentration index (FICI)” value [24]?
Answer: 0.094

Question: What about the “fractional inhibitory concentration index (FICI)” value [25] of the same compound?
Answer: 0.531

Question: What about the MIC [26] of the same compound?
Answer: 1 µg/mL (≈ 2.53 µM)

Question: What about the Activity [27] of the same compound?
Answer: Active

Question: What about the Activity [28] of the same compound?
Answer: Active

Question: And the Activity [29]?
Answer: Active

Question: And the MIC [30]?
Answer: 1 µg/mL (≈ 2.53 µM)

Question: What about the MIC [31] of the same compound?
Answer: 1 µg/mL

Question: And the Activity [32]?
Answer: inactive

Question: What about the Activity [33] of the same compound?
Answer: Active

Question: And the MIC [34]?
Answer: 1 µg/mL (≈ 2.53 µM)

Question: And the MIC [35]?
Answer: 4 µg/mL (≈ 10.1 µM)

Question: What about the MIC [36] of the same compound?
Answer: > 128 µg/mL

Question: And the “fold change (FC)” value [37]?
Answer: 16
